In US20120251595A1, “EMULSION TEMPLATE METHOD TO FORM SMALL PARTICLES OF HYDROPHOBIC AGENTS WITH SURFACE ENRICHED HYDROPHILICITY BY ULTRA RAPID FREEZING” (BOARD OF REGENTS, THE UNIVERSITY OF TEXAS SYSTEM, priority 2009, published 2012):
≈ marks a conversion by molar mass, not a printed value.

How the values were obtained:
[1] = Solubility and pKa of itraconazole; type: physicochemical; settings: pH 1.2 dissolution media, simulated gastric fluid, thermodynamic from solid, crystalline ITZ, read-out: Equilibrium solubility Ceq
Source text: This study compares the effectiveness of fine emulsion templating and co-solvent approaches with the URF process to enhance the wetting and solubility of the model drug, itraconazole (ITZ). Itraconazole (ITZ) is a weakly basic broad-spectrum triazole antifungal agent indicated in the treatment of both local and systemic fungal infections; however, successful treatment of infections is often complicated by its low aqueous solubility resulting in variable absorption and plasma concentration. Classified as a BCS class II compound, ITZ has a strongly pH dependent solubility (pKa˜3.7) with reported solubilities in acidic and neutral media of approximately 4 μg/mL and 1 ng/mL, respectively. While limited by poor aqueous solubility, the highly lipophilic nature of the compound allows for high permeability of intestinal membranes. […]

[2] = X-ray photoelectron spectroscopy (XPS) of particle surface composition; type: physicochemical
Description: […]
Powders containing ITZ were prepared according to procedures outlined in Examples 1, 2, 3, and 4 with the same formulations. The elemental composition of the particle surfaces was determined using X-ray photoelectron spectroscopy (XPS). […] Percent surface excess of ITZ was calculated by deducting 50% from the percent surface compositions of ITZ while percent surface excess of lecithin was calculated by deducting 25% from the percent surface compositions of lecithin. […]

[3] = cited from earlier work

solubility thermodynamic [1]: 5 µg/mL (≈ 7.09 µM)
Mass Concentration Chlorine, SOL [2]: 9.54%
Surface composition ITZ, SOL [2]: 100.0%
Structure (SMILES): CCC(C)n1ncn(-c2ccc(N3CCN(c4ccc(OCC5COC(Cn6cncn6)(c6ccc(Cl)cc6Cl)O5)cc4)CC3)cc2)c1=O (stereo not shown) [ITZ, itraconazole]
pKa [3]: ~3.7
